What was measured:
[1] = target: T1, IKKe (Homo sapiens, UniProt Q14164); experiment: Kinobeads competition binding, L-363 cell lysate; parameters: endogenous in cells; host or cells: L-363 (treated with MG132 before harvest); conditions: 10 μM free compound, L-363 lysate
T1 sequence (Q14164 1-716): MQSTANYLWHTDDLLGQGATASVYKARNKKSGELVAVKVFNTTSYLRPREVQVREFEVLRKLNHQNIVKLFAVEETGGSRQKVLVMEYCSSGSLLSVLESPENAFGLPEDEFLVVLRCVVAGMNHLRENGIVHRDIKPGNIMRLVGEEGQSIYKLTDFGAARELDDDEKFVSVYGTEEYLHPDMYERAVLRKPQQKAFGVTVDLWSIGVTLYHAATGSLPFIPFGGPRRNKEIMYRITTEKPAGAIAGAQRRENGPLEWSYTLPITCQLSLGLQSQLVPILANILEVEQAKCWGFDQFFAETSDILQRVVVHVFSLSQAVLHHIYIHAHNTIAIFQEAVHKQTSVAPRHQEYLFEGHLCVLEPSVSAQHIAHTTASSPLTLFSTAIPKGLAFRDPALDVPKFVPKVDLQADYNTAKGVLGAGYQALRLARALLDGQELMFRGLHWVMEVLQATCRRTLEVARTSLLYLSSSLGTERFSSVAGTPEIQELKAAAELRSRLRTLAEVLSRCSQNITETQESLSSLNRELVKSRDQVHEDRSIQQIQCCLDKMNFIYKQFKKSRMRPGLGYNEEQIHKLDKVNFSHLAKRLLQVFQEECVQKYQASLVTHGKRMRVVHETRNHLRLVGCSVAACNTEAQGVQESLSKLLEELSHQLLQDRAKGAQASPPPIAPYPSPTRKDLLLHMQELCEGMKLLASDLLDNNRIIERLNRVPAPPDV
Method: (§1) To one aliquot of cell lysate 10 μM of the free compound (FIG. 3, CZC31326) was added and allowed to bind to proteins in the lysate. Then the affinity matrix with the immobilized compound was added to capture proteins that were not interacting with the previously added free compound. Beads were separated from the lysate and bead bound proteins were eluted in SDS sample buffer and subsequently separated by SDS-Polyacrylamide gel electrophoresis (FIG. 8). Suitable gel bands were cut out and subjected to in-gel proteolytic digestion with trypsin. The second lysate aliquot was processed identically, however no free compound was added (DMSO solvent control). Peptides originating from samples 1 and 2 were labeled with iTRAQ reagents (iTRAQ 114 and iTRAQ 117) and the combined samples were analyzed with a nano-flow liquid chromatography system coupled online to a tandem mass spectrometer (LC-MS/MS) experiment followed by iTRAQ reporter ion quantification in the MS/MS spectra as described in Example 2.
For this experiment the human plasma cell leukaemia line L-363 was used (German Collection of Microorganisms and Cell Cultures, DSMZ number ACC49, Braunschweig, Germany). Cells were treated for three hours with 20 μM of the proteasome inhibitor MG132 (Z-Leu-Leu-Leu-al, Sigma C2211) prior to cell harvesting.

[2] = target: YES (Homo sapiens, UniProt P07947); experiment: Kinobeads competition binding, HeLa Placenta lysate mix; parameters: kinases from mixed HeLa placenta lysates; endogenous in cells; host or cells: mixed lysate of HeLa cells and placenta tissue; conditions: 10 μM free compound
YES, sequence (P07947 whole entry): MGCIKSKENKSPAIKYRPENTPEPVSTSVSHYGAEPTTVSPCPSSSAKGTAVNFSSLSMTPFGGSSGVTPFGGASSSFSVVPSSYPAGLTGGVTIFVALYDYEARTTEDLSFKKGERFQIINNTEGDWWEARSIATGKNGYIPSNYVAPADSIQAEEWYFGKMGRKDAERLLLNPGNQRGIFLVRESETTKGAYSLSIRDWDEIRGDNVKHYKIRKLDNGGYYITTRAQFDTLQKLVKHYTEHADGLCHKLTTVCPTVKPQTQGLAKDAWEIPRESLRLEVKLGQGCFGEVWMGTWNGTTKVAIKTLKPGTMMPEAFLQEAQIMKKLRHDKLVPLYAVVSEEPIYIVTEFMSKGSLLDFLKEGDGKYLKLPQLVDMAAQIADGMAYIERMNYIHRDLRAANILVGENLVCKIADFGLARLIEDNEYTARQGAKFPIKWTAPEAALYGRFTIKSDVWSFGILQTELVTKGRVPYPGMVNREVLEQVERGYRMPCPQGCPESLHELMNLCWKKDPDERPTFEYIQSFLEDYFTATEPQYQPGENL
Method: as §1, with “10).” for “8).”

[3] = target: TGFbR1 (Homo sapiens, UniProt P36897); experiment: as above; parameters: kinases from mixed HeLa placenta lysates; endogenous in cells; host or cells: mixed lysate of HeLa cells and placenta tissue; conditions: 10 μM free compound
TGFbR1, sequence (P36897 34-503): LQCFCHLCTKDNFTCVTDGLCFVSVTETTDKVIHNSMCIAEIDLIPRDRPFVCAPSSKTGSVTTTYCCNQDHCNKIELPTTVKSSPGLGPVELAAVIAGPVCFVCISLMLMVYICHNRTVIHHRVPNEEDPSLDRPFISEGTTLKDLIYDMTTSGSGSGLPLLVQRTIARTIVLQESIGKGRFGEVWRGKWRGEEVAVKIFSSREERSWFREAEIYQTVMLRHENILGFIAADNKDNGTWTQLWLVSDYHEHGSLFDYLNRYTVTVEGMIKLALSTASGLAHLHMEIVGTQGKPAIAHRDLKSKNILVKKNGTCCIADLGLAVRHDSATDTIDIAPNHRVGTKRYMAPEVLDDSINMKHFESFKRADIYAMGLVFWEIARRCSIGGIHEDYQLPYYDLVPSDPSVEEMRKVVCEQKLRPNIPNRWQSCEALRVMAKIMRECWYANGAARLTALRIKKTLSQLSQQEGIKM
Method: as §1, with “10).” for “8).”

[4] = target: T2, TEC (Homo sapiens, UniProt P42680); experiment: as above; parameters: kinases from mixed HeLa placenta lysates; endogenous in cells; host or cells: mixed lysate of HeLa cells and placenta tissue; conditions: 10 μM free compound
T2 sequence (P42680 1-631): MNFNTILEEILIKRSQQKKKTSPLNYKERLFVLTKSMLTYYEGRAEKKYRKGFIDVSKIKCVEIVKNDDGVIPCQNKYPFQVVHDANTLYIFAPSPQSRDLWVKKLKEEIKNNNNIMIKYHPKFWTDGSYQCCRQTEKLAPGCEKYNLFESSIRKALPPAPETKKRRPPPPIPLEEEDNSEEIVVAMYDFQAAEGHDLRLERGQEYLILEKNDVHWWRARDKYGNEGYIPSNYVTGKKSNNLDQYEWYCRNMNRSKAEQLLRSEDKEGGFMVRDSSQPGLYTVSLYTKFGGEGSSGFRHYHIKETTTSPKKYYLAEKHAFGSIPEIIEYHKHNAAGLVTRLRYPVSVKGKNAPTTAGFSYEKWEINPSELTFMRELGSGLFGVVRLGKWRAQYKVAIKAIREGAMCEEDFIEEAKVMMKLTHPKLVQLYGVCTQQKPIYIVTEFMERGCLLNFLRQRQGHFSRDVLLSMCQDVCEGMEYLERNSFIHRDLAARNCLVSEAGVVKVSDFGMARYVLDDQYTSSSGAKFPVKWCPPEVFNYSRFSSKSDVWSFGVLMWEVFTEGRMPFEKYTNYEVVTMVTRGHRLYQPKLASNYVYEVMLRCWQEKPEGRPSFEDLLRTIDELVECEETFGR
Method: as §1, with “10).” for “8).”

CS(=O)(=O)Nc1ccccc1Nc1nc(Nc2cccc(OCCN)c2)ncc1Cl [CZC31326, N-(2-(2-(3-(2-aminoethoxy)phenylamino)-5-chloropyrimidin-4-ylamino)phenyl)methanesulfonamide]
inhibition at 10 µM [1]: 89.4%
inhibition at 10 µM [2]: 90.3%
inhibition at 10 µM [3]: 90.8%
inhibition at 10 µM [4]: 89.2%
